Assay results as given in ChEMBL document CHEMBL5120936, “S-Protected Cysteine Sulfoxide-Enabled Tryptophan-Selective Modification with Application to Peptide Lipidation” (ACS Med Chem Lett, 2022).
Activity calls are given as the source filed them. The rule behind the calls is not given here.

Assays:
Assay type in all cases: functional, organism-based
Conditions in all cases: dose 500.0 µg/kg
[1] = system: Mus musculus; assay: Hypoglycemic activity in sixteen hrs fasted wild type C57BL/6 mouse assessed as reduction in blood glucose level at 500 microg/kg, ip followed by oral glucose at 2 g/Kg and measured for 120 mins by OGTT
[2] = system: Mus musculus; assay: Hypoglycemic activity in sixteen hrs fasted wild type C57BL/6 mouse assessed as reduction in blood glucose level at 500 microg/kg, ip followed by oral glucose at 2 g/Kg and measured for 150 mins by OGTT
[3] = system: Mus musculus; assay: Hypoglycemic activity in sixteen hrs fasted wild type C57BL/6 mouse assessed as increase in insulin concentration at 500 microg/kg, ip followed by oral glucose at 2 g/Kg and measured upto 150 mins by OGTT
[4] = system: Mus musculus; assay: Hypoglycemic activity in sixteen hrs fasted wild type C57BL/6 mouse assessed as reduction in glucose concentration at 500 microg/kg, ip followed by oral glucose at 2 g/Kg and measured upto 150 mins by OGTT

Compound | Activity [1] | Activity [2] | Activity [3] | Activity [4]
CCCCCCCCCCCCCCCC(=O)NCCOCCOCCOCCOCCOCCOCC(=O)N[C@@H](CSc1[nH]c2ccccc2c1C[C@H](NC(=O)[C@H](C)NC(=O)[C@@H](NC(=O)[C@H](Cc1ccccc1)NC(=O)[C@H](CCC(=O)O)NC(=O)[C@H](CCCCN)NC(=O)[C@H](C)NC(=O)[C@H](C)NC(=O)[C@H](CCC(N)=O)NC(=O)CNC(=O)[C@H](CCC(=O)O)NC(=O)[C@H](CC(C)C)NC(=O)[C@H](Cc1ccc(O)cc1)NC(=O)[C@H](CO)NC(=O)[C@H](CO)NC(=O)[C@@H](NC(=O)[C@H](CC(=O)O)NC(=O)[C@H](CO)NC(=O)[C@@H](NC(=O)[C@H](Cc1ccccc1)NC(=O)[C@@H](NC(=O)CNC(=O)[C@H](CCC(=O)O)NC(=O)[C@H](C)NC(=O)[C@@H](N)Cc1cnc[nH]1)[C@@H](C)O)[C@@H](C)O)C(C)C)[C@@H](C)CC)C(=O)N[C@@H](CC(C)C)C(=O)N[C@H](C(=O)N[C@@H](CCCCN)C(=O)NCC(=O)N[C@@H](CCCNC(=N)N)C(=O)NCC(=O)O)C(C)C)C(N)=O | Active | Active | – | –
CC[C@H](C)[C@H](NC(=O)[C@H](Cc1ccccc1)NC(=O)[C@H](CCC(=O)O)NC(=O)[C@H](CCCCN)NC(=O)[C@H](C)NC(=O)[C@H](C)NC(=O)[C@H](CCC(N)=O)NC(=O)CNC(=O)[C@H](CCC(=O)O)NC(=O)[C@H](CC(C)C)NC(=O)[C@H](Cc1ccc(O)cc1)NC(=O)[C@H](CO)NC(=O)[C@H](CO)NC(=O)[C@@H](NC(=O)[C@H](CC(=O)O)NC(=O)[C@H](CO)NC(=O)[C@@H](NC(=O)[C@H](Cc1ccccc1)NC(=O)[C@@H](NC(=O)CNC(=O)[C@H](CCC(=O)O)NC(=O)[C@H](C)NC(=O)[C@@H](N)Cc1c[nH]cn1)[C@@H](C)O)[C@@H](C)O)C(C)C)C(=O)N[C@@H](C)C(=O)N[C@@H](Cc1c[nH]c2ccccc12)C(=O)N[C@@H](CC(C)C)C(=O)N[C@H](C(=O)N[C@@H](CCCCN)C(=O)NCC(=O)N[C@@H](CCCN=C(N)N)C(=O)NCC(=O)O)C(C)C | – | – | Active | Active
CCCCCCCCCCCCCCCC(=O)NCCOCCOCC(=O)N[C@@H](CSc1[nH]c2ccccc2c1C[C@H](NC(=O)[C@H](C)NC(=O)[C@@H](NC(=O)[C@H](Cc1ccccc1)NC(=O)[C@H](CCC(=O)O)NC(=O)[C@H](CCCCN)NC(=O)[C@H](C)NC(=O)[C@H](C)NC(=O)[C@H](CCC(N)=O)NC(=O)CNC(=O)[C@H](CCC(=O)O)NC(=O)[C@H](CC(C)C)NC(=O)[C@H](Cc1ccc(O)cc1)NC(=O)[C@H](CO)NC(=O)[C@H](CO)NC(=O)[C@@H](NC(=O)[C@H](CC(=O)O)NC(=O)[C@H](CO)NC(=O)[C@@H](NC(=O)[C@H](Cc1ccccc1)NC(=O)[C@@H](NC(=O)CNC(=O)[C@H](CCC(=O)O)NC(=O)[C@H](C)NC(=O)[C@@H](N)Cc1cnc[nH]1)[C@@H](C)O)[C@@H](C)O)C(C)C)[C@@H](C)CC)C(=O)N[C@@H](CC(C)C)C(=O)N[C@H](C(=O)N[C@@H](CCCCN)C(=O)NCC(=O)N[C@@H](CCCNC(=N)N)C(=O)NCC(=O)O)C(C)C)C(N)=O | Active | Active | – | –
